# Data as given in patent US20250388857A1, “USE OF TRIBUTYRIN AS AN ADDITIVE FOR EMBRYONIC DEVELOPMENT CULTURE MEDIUM IN VITRO” (Institute of Animal Sciences and Veterinary Medicine, Hubei …, priority 2024, published 2025).
# How the values were obtained:
# mouse embryos [1] = test: development in vitro of mouse embryos (rate of 2-cell, 4-cell, blastocyst); assay type: cell-based; conditions: for The rate of 2-cell: 24 h culture; for The rate of 4-cell: 48 h culture
# Method: Specifically, at 4:00 p.m. on the first day, 10 IU pregnant horse serum gonadotropin was injected intraperitoneally into Kunming female mouse with SPF level for 6˜9 weeks, and 8 IU chorionic gonadotropin was injected after 48 hours. At 9:00 the next day, the 9˜12-week male mouse was killed by cervical dislocation, and the tail of the epididymis next to the vas deferens was taken, after cutting with ophthalmic scissors in 200 μL of insemination droplet (Sigma, MR-070-D) is to release sperm for 60 minutes. The insemination droplet need to be pre-balanced the night before. At the same time, 4 female mouse were killed by neck detachment, the enlargement of oviduct was disposed of in the sperm solution, the insulin needle was used to open the ampulla side under the microscope, and the cumulus-oocyte complex (COCs) would be released from the ampulla under the action of squeezing or internal pressure. 8˜10 μL of sperm and COCs were taken in the insemination droplet. After 6 h after insemination, the zygotes (with two pronuclei, both male and female) were cleaned and transferred to different treatments of KSOM culture medium, specific groups are as follows:
# Control group: the basic development culture medium in vitro of mouse embryos was added to the special small dish for embryo culture, 2 droplets were made, 50 μL of culture medium per droplets, covered with paraffin oil, pre-balanced in an incubator with 37° C., 5% CO2 saturated humidity for more than 6 hours, and the embryos were placed in well-balanced culture droplets, with 25˜35 pieces per droplets;
# Treatment group 1: the development culture medium in vitro of mouse embryos containing 50 μmol/L of tributyrin was added to the special dish for embryo culture, 2 droplets were made, 50 μL of culture medium per droplets, covered with paraffin oil, pre-balanced in an incubator with 37° C., 5% CO2 saturated humidity for more than 6 hours, and the embryos were placed in well-balanced culture droplets, with 25˜35 pieces per droplets;
# Treatment group 2: the development culture medium in vitro of mouse embryos containing 100 μmol/L of tributyrin was added to the special dish for embryo culture, 2 droplets were made, 50 μL of culture medium per droplets, covered with paraffin oil, pre-balanced in an incubator with 37° C., 5% CO2 saturated humidity for more than 6 hours, and the embryos were placed in well-balanced culture droplets, with 25˜35 pieces per droplets;
# Treatment group 3: the development culture medium in vitro of mouse embryos containing 200 μmol/L of tributyrin was added to the special dish for embryo culture, 2 droplets were made, 50 μL of culture medium per droplets, covered with paraffin oil, pre-balanced in an incubator with 37° C., 5% CO2 saturated humidity for more than 6 hours, and the embryos were placed in well-balanced culture droplets, with 25˜35 pieces per droplets;
# The above different treatment groups were incubated in an incubator with 37° C., 5% CO2 saturated humidity for 24 h, 48 h, 72 h and 96 h, corresponding to the 2-cell, 4-cell, morula and blastocyst stages of embryonic development, respectively, and the embryonic development was observed.
# The rate of cleavage (%)=number of cleavage embryos/number of fertilized eggs with male and female pronuclei×100%
# The rate of blastocyst (%)=number of blastocysts/number of cleavage embryos×100%
# mouse embryos [2] = test: detection of reactive oxygen species (ROS) in mouse embryos, DCFH-DA fluorescence; assay type: cell-based; conditions: 100 μmol/L tributyrin, 2-cell stage, vs control
# Method: (§1) Therefore, exemplically, experiments are carried out in the experimental group of this example using culture medium added 100 μmol/L of tributyrin, specifically, the experiments are divided into the following two groups:
# (§2) Experimental group: the development culture medium in vitro of mouse embryos containing 100 μmol/L of tributyrin was added to the special dish for embryo culture, 2 droplets were made, 50 μL of culture medium per droplets, covered with paraffin oil, pre-balanced in an incubator with 37° C., 5% CO2 saturated humidity for more than 6 hours, and the embryos were placed in well-balanced culture droplets, with 25˜35 pieces per droplets.
# Referring to the steps of development culture in vitro of example 2, development culture in vitro was carried out on the above two treatment groups; according to the instructions of the reactive oxygen species detection kit (Biyuntian, S0033S), DCFH-DA was diluted to a working solution concentration of 5 µM with KSOM culture medium. […] Image J software was used to analyze the average fluorescence intensity of ROS in embryos.
# mouse embryos [3] = test: detection of mitochondrial membrane potential, JC-1 staining; assay type: cell-based; conditions: 100 μmol/L tributyrin, 2-cell stage, vs control
# Method: as §1, §2
# Referring to the steps of development culture in vitro of example 2, development culture in vitro was carried out on the above two treatment groups; according to the instructions of the mitochondrial membrane potential J C-1 detection kit (Biyuntian, C2006), the embryos of the control group and the experimental group at the 2-cell stage were transferred into 1×J C-1 staining working solution, incubated in the dark at 37° C., 5% CO2 incubator for 30 min, then wash the embryos with 1×J C-1 staining buffer, it was placed under an inverted fluorescence microscope for observation and photography. Image J software was used to analyze the average fluorescence intensity of J C-1 red and J C-1 green in embryos.
# mouse embryos [4] = test: detection of ATP level in mouse embryos; assay type: cell-based; conditions: 100 μmol/L tributyrin, 2-cell stage, vs control
# Method: as §1, §2
# Referring to the steps of development culture in vitro of example 2, development culture in vitro was carried out on the above two treatment groups; according to the instructions of the ATP detection kit (Biyuntian, S0027), the embryos of the control group and the experimental group at the 2-cell stage were tested for ATP. Add 16 μL of ATP detection lysate to 200 μL centrifuge tube and transfer into 40 pieces 2-cell stage embryos. […] 64 μL of ATP working solution (ATP detection reagent diluent: ATP detection reagent=4:1) was added to the tube, vortex and centrifuged to the bottom of the tube, quickly transferred to a black 96-well plate with a multifunctional microplate reader for detection.
# SOD2 = test: detection of antioxidant gene expression in mouse embryos (qPCR), SOD2; assay type: cell-based; conditions: 100 μmol/L tributyrin, 2-cell stage, vs control, RPLP0 internal control
# Method: as §1, §2
# (§3) Referring to the steps of development culture in vitro of example 2, development culture in vitro was carried out on the above two treatment groups; embryos from the control group and the experimental group at the 2-cell stage were obtained, the high-purity RNA was extracted according to the instructions of the RNAprep Pure Total RNA Extraction Kit for Micro Samples (Tiangen, DP420). […] (annealed) for 30 s; 40 cycles (PCR amplification); the fluorescent signal was collected at 55° C. extension, the RPLPO gene was used as an internal control, and the expression was calculated using the 2^−ΔΔct formula, wherein, the primer sequences of each gene are shown in Table 2 below: […]
# GPX4 = test: detection of antioxidant gene expression in mouse embryos (qPCR), GPX4; assay type: cell-based; conditions: 100 μmol/L tributyrin, 2-cell stage, vs control, RPLP0 internal control
# Method: as §1, §2, §3
# [5] = tested on: 5 hmC level in mouse embryonic genome; test: detection of DNA methylation level (5 hmC immunofluorescence); assay type: cell-based; conditions: 100 μmol/L tributyrin, 2-cell stage, vs control
# Method: as §1, §2
# Referring to the steps of development culture in vitro of example 2, development culture in vitro was carried out on the above two treatment groups; embryos from the control group and the experimental group at the 2-cell stage were obtained, in order to detect the DNA methylation level in mouse embryos, the cells were first fixed with paraformaldehyde, TritonX-100 enhanced the permeability of the cell membrane to facilitate the binding of antibody antigens. After acidification and base neutralization, the non-specific protein is blocked with 2% BSA, followed by incubation with the corresponding primary antibody and fluorescently labeled secondary antibody. The specific methods and steps are as follows: […]
# histone H3K27ac = test: detection of histone acetylation level (H3K27ac immunofluorescence); assay type: cell-based, mouse; conditions: 100 μmol/L tributyrin, 2-cell stage, vs control
# Method: as §1, §2
# Referring to the steps of development culture in vitro of example 2, development culture in vitro was carried out on the above two treatment groups; embryos from the control group and the experimental group at the 2-cell stage were obtained, the histone H3K27ac level was detected by immunofluorescence. The specific methods and steps are as follows:
# (1) Mouse embryos fixation and permeabilization: mouse embryos were placed in a washing solution (PBS containing 0.1% Tween-20 and 0.01% Triton X-100) for rapid washing for 1 time, then piped into the fixed permeabilization solution (PBS containing 4% paraformaldehyde and 0.5% Triton) and treated at room temperature for 50 min. […]
compound,measurement,setting,value
CCCC(=O)OCC(COC(=O)CCC)OC(=O)CCC [tributyrin],The rate of 2-cell,mouse embryos [1]; 50 μmol/L tributyrin in KSOM,96.58 ± 0.83%
same,The rate of 4-cell,mouse embryos [1]; 50 μmol/L tributyrin in KSOM,95.57 ± 0.57%
same,The rate of 2-cell,mouse embryos [1]; 100 μmol/L tributyrin in KSOM,96.91 ± 0.76%
same,The rate of 4-cell,mouse embryos [1]; 100 μmol/L tributyrin in KSOM,96.57 ± 0.37%
same,The rate of 2-cell,mouse embryos [1]; 200 μmol/L tributyrin in KSOM,96.63 ± 0.5%
same,The rate of 4-cell,mouse embryos [1]; 200 μmol/L tributyrin in KSOM,96.46 ± 0.5%
same,"number of cells (microscopic observation, FIG. 1A)",mouse embryos [1]; treatment group compared to control group,increased significantly
same,ROS level (average fluorescence intensity of ROS) in mouse embryos,mouse embryos [2],significantly reduced
same,mitochondrial membrane potential level (relative fluorescence intensity of JC-1 red/green),mouse embryos [3],significantly improved
same,ATP level in mouse embryos,mouse embryos [4],significantly increased
same,expression of antioxidant gene SOD2,SOD2,significantly increased
same,expression of antioxidant gene GPX4,GPX4,significantly increased
same,5 hmC level in mouse embryos,[5],significantly increased
same,histone H3K27ac level in mouse embryos,histone H3K27ac,significantly increased
